Laboratory results as given in US8932818B2, “Screening assays for compounds that modulate programmed ribosomal frameshifting” (PTC Therapeutics, Inc., priority 2008, dated 2015).

Test system: HIV-1 frameshift signal sequence
Test: dual luciferase assay for viral programmed ribosomal frameshifting
Format: cell-based
Description: For example, the ability of a compound to modulate the efficiency of viral programmed ribosomal frameshifting can be validated in a dual luciferase assay comprising: (a) contacting a compound with a host cell expressing a nucleic acid construct comprising in 5′ to 3′ order: (i) a promoter sequence; (ii) the Renilla luciferase (rluc) gene; (iii) the HIV-1 frameshift signal sequence; (iv) the firefly luciferase gene (flue); and (v) a polyadenylation sequence; and (b) detecting the activity of Renilla luciferase versus that of firefly luciferase, wherein a compound that modulates the efficiency of programmed ribosomal frameshifting is validated if (i) the activity of Renilla luciferase in the presence of the compound is not changed relative to the activity of Renilla luciferase detected in the absence of the compound; and (ii) the activity of firefly luciferase detected in the presence of the compound is changed relative to the activity of firefly luciferase detected in the absence of the compound. In other words, the ratio of Renilla luciferase to firefly luciferase is changed in the presence of the compound relative to the absence of the compound.
The ability of Compound 1 to modulate the efficiency of viral programmed ribosomal frameshifting was measured using a dual luciferase assay (as described in Biswas, et al., 2004, J. Virol. 78(4):2082-2087).

SMILES: COc1ccc2c(c1)C(=O)N(c1ccc(C(C)C)cc1)C2 [Compound 1, 2-(4-isopropylphenyl)-6-methoxyisoindolin-1-one]
- modulates the efficiency of viral programmed ribosomal frameshifting (dual luciferase assay): modulates the efficiency of viral programmed ribosomal frameshifting
- inhibition in luciferase activity relative to negative control (relative to 0.5% DMSO, average at compound test concentration approximately 5 μM to approximately 130 μM (FIG. 1)): approximately 5 fold
